What follows are compounds tested against BRD4 (Homo sapiens (Human), UniProt O60885). Conditions: read-out: BRD4 IC50 (μM gmean).

| SMILES | IC50 [µM] |
| --- | --- |
| COC(=O)N1c2ccc3c(nc(C(C)Cn4cc(Cl)cn4)n3C3CCS(=O)(=O)C3)c2CC[C@@H]1C (stereo partly shown) [Example 709] | 1 to 1000 |
| COC(=O)N1c2ccc3c(nc(C4(Cn5cccn5)CC4)n3[C@H]3CC[C@H](C(=O)O)CC3)c2CC[C@@H]1C [Example 710] | 1 to 1000 |
| COC(=O)N1c2ccc3c(nc(COC4CCCC4)n3[C@@H]3CCC[C@@H](C(=O)O)C3)c2CC[C@@H]1C [Example 711] | 1 to 1000 |
| COC(=O)N1c2ccc3c(nc(C(O)CC4CCC(F)(F)CC4)n3C3CCCC(C(=O)O)C3)c2CC[C@@H]1C (stereo partly shown) [Example 712] | 1 to 1000 |
| COC(=O)N1c2ccc3c(nc(Cn4cc(C(C)C)cn4)n3[C@H]3CC[C@H](C(=O)O)CC3)c2CC[C@@H]1C [Example 714] | 1 to 1000 |
| COC(=O)N1c2ccc3c(nc(C(NC(C)=O)c4ccccc4)n3C3CCC(C(=O)O)CC3)c2CC[C@@H]1C (stereo partly shown) [Example 717] | 1 to 1000 |
| COC(=O)N1c2ccc3c(nc(Cc4cccc(C)c4)n3[C@@H]3CCC[C@@H](C(=O)O)C3)c2CC[C@@H]1C [Example 718] | 1 to 1000 |
| COC(=O)N1c2ccc3c(nc(C(C)Cc4ccc(F)c(F)c4)n3C3CCCC(C(=O)O)C3)c2CC[C@@H]1C (stereo partly shown) [Example 720] | 1 to 1000 |
| COC(=O)N1c2ccc3c(nc(C[C@H]4CC[C@H](OC)CC4)n3[C@@H]3CCC[C@@H](C(=O)O)C3)c2CC[C@@H]1C [Example 723] | 1 to 1000 |
| COC(=O)N1c2ccc3c(nc(C(C)OC4CCOCC4)n3C3CCC(C(=O)O)CC3)c2CC[C@@H]1C (stereo partly shown) [Example 724] | 1 to 1000 |
| COC(=O)N1c2ccc3c(nc(C(c4ccccc4)[S+](C)[O-])n3C3CCC(C(=O)O)CC3)c2CC[C@@H]1C (stereo partly shown) [Example 725] | 1 to 1000 |
| COC(=O)N1c2ccc3c(nc(CC4CCC(C#N)CC4)n3C3CCCC(C(=O)O)C3)c2CC[C@@H]1C (stereo partly shown) [Example 726] | 1 to 1000 |
| COC(=O)N1c2ccc3c(nc(CC(C(=O)O)c4cccc(F)c4)n3C3CCCOC3)c2CC[C@@H]1C (stereo partly shown) [Example 728] | 1 to 1000 |
| COC(=O)N1c2ccc3c(nc(CC4CCC(OC)CC4)n3C3CCC(C(=O)O)CC3)c2CC[C@@H]1C (stereo partly shown) [Example 729] | 1 to 1000 |
| COC(=O)N1c2ccc3c(nc(C(C)C(=O)N4CCCC4)n3C3CCCC(C(=O)O)C3)c2CC[C@@H]1C (stereo partly shown) [Example 732] | 1 to 1000 |
| COC(=O)N1c2ccc3c(nc(Cn4cc(C5CC5)cn4)n3[C@H]3CC[C@H](C(=O)O)CC3)c2CC[C@@H]1C [Example 733] | 1 to 1000 |
| COC(=O)N1c2ccc3c(nc(Cn4cc(Cl)cn4)n3[C@H]3CC[C@H](C(=O)O)CC3)c2CC[C@@H]1C [Example 737] | 1 to 1000 |
| COC(=O)N1c2ccc3c(nc(Cc4cnc(C)cn4)n3[C@@H]3CCC[C@@H](C(=O)O)C3)c2CC[C@@H]1C [Example 738] | 1 to 1000 |
| COC(=O)N1c2ccc3c(nc(Cc4ccc(OC)c(OC)c4)n3[C@H]3CC[C@H](C(=O)O)CC3)c2CC[C@@H]1C [Example 740] | 1 to 1000 |
| COC(=O)N1c2ccc3c(nc(COC4CCOCC4)n3[C@@H]3CCC[C@@H](C(=O)O)C3)c2CC[C@@H]1C [Example 741] | 1 to 1000 |
| COC(=O)N1c2ccc3c(nc(C(C)Cc4cnn(C)c4)n3C3CCCC(C(=O)O)C3)c2CC[C@@H]1C (stereo partly shown) [Example 742] | 1 to 1000 |
| COC(=O)N1c2ccc3c(nc(CCc4ccccc4C(=O)O)n3C3CCOCC3)c2CC[C@@H]1C [Example 743] | 1 to 1000 |
| COC(=O)N1c2ccc3c(nc(Cc4ccc(C#N)cc4)n3[C@H]3CC[C@H](C(=O)O)CC3)c2CC[C@@H]1C [Example 744] | 1 to 1000 |

| SMILES | IC50 [µM] |
| --- | --- |
| COC(=O)N1c2ccc3c(nc(Cc4cnc(Cl)c(C)n4)n3[C@@H]3CCC[C@@H](C(=O)O)C3)c2CC[C@@H]1C [Example 745] | 1 to 1000 |
| COC(=O)N1c2ccc3c(nc(C(C)(O)c4ccccn4)n3C3CCCC(C(=O)O)C3)c2CC[C@@H]1C (stereo partly shown) [Example 749] | 1 to 1000 |
| COC(=O)N1c2ccc3c(nc(CC(C(=O)O)c4ccc(F)c(F)c4)n3C3CCCC3)c2CC[C@@H]1C (stereo partly shown) [Example 751] | 1 to 1000 |
| COC(=O)N1c2ccc3c(nc(COC4CCCC4)n3[C@H]3CC[C@H](C(=O)O)CC3)c2CC[C@@H]1C [Example 752] | 1 to 1000 |
| COC(=O)N1c2ccc3c(nc(C4(Cn5cccn5)CC4)n3[C@@H]3CCC[C@@H](C(=O)O)C3)c2CC[C@@H]1C [Example 753] | 1 to 1000 |
| COC(=O)N1c2ccc3c(nc(C(C)Cn4cccn4)n3C3CCS(=O)(=O)CC3)c2CC[C@@H]1C (stereo partly shown) [Example 754] | 1 to 1000 |
| COC(=O)N1c2ccc3c(nc(CC(C(=O)O)c4ccc(C(C)C)cc4)n3C3CCCOC3)c2CC[C@@H]1C (stereo partly shown) [Example 756] | 1 to 1000 |
| COC(=O)N1c2ccc3c(nc(CC(C(=O)O)c4ccccc4)n3C3CCCC(OC)C3)c2CC[C@@H]1C (stereo partly shown) [Example 757] | 1 to 1000 |
| COC(=O)N1c2ccc3c(nc(CN4CCc5ccccc5C4=O)n3[C@@H]3CCC[C@@H](C(=O)O)C3)c2CC[C@@H]1C [Example 758] | 1 to 1000 |
| COC(=O)N1c2ccc3c(nc(COC4CCOCC4)n3[C@H]3CC[C@H](C(=O)O)CC3)c2CC[C@@H]1C [Example 759] | 1 to 1000 |
| COC(=O)N1c2ccc3c(nc(C(O)C4CCCC4)n3C3CCCC(C(=O)O)C3)c2CC[C@@H]1C (stereo partly shown) [Example 762] | 1 to 1000 |
| COC(=O)N1c2ccc3c(nc(N(C)c4ccc(C#N)cc4)n3[C@H]3CC[C@H](C(=O)O)CC3)c2CC[C@@H]1C [Example 769] | 1 to 1000 |
| COC(=O)N1c2ccc3c(nc(C(C)Cn4cccn4)n3C3CCS(=O)(=O)C3)c2CC[C@@H]1C (stereo partly shown) [Example 771] | 1 to 1000 |
| COC(=O)N1c2ccc3c(nc(C(C)Cn4cccn4)n3C3CCS(=O)(=O)C3)c2CC[C@@H]1C (stereo partly shown) [Example 772] | 1 to 1000 |
| COC(=O)N1c2ccc3c(nc(CC(C(=O)O)c4ccc(F)cc4)n3C3CCCOC3)c2CC[C@@H]1C (stereo partly shown) [Example 773] | 1 to 1000 |
| COC(=O)N1c2ccc3c(nc(Cc4cncc(OC(C)C)c4)n3[C@@H]3CCC[C@@H](C(=O)O)C3)c2CC[C@@H]1C [Example 775] | 1 to 1000 |
| COC(=O)N1c2ccc3c(nc(Cc4ccc(C(F)(F)F)nn4)n3[C@@H]3CCC[C@@H](C(=O)O)C3)c2CC[C@@H]1C [Example 777] | 1 to 1000 |
| COC(=O)N1c2ccc3c(nc(Cc4ccccc4C(=O)O)n3C3CCOCC3)c2CC[C@@H]1C [Example 778] | 1 to 1000 |
| COC(=O)N1c2ccc3c(nc([C@@H](c4ccccc4)S(C)(=O)=O)n3[C@H]3CC[C@H](C(=O)O)CC3)c2CC[C@@H]1C [Example 779] | 1 to 1000 |
| COC(=O)N1c2ccc3c(nc(Cc4cccc(OC(C)C)n4)n3[C@H]3CC[C@H](C(=O)O)CC3)c2CC[C@@H]1C [Example 780] | 1 to 1000 |
| COC(=O)N1c2ccc3c(nc(C(C)Cn4ccc(C)n4)n3C3CCCC(C(=O)O)C3)c2CC[C@@H]1C (stereo partly shown) [Example 782] | 1 to 1000 |
| COC(=O)N1c2ccc3c(nc(CC(C(=O)O)c4ccc(C)c(F)c4)n3C3CCCOC3)c2CC[C@@H]1C (stereo partly shown) [Example 783] | 1 to 1000 |
| COC(=O)N1c2ccc3c(nc(CCC4CCOCC4)n3[C@H]3CC[C@H](C(=O)O)CC3)c2CC[C@@H]1C [Example 784] | 1 to 1000 |

| SMILES | IC50 [µM] |
| --- | --- |
| COC(=O)N1c2ccc3c(nc(CC(C(=O)O)c4ccc(C(F)F)cc4)n3C3COCC(F)(F)C3)c2CC[C@@H]1C (stereo partly shown) [Example 785] | 1 to 1000 |
| COC(=O)N1c2ccc3c(nc(CC(C(=O)O)c4ccccc4)n3-c3cccc(OC)c3)c2CC[C@@H]1C (stereo partly shown) [Example 786] | 1 to 1000 |
| COC(=O)N1c2ccc3c(nc(N(C)c4ccccc4)n3[C@@H]3CCC[C@@H](C(=O)O)C3)c2CC[C@@H]1C [Example 787] | 1 to 1000 |
| COC(=O)N1c2ccc3c(nc(CN4C(=O)CCc5ccccc54)n3[C@@H]3CCC[C@@H](C(=O)O)C3)c2CC[C@@H]1C [Example 789] | 1 to 1000 |
| COC(=O)N1c2ccc3c(nc(CC(C(=O)O)c4ccccc4)n3C3CCCC(OC)C3)c2CC[C@@H]1C (stereo partly shown) [Example 791] | 1 to 1000 |
| COC(=O)N1c2ccc3c(nc(OCc4ccccc4)n3[C@H]3CC[C@H](C(=O)O)CC3)c2CC[C@@H]1C [Example 792] | 1 to 1000 |
| COC(=O)N1c2ccc3c(nc(Cc4cnc5cc[nH]c5n4)n3[C@@H]3CCC[C@@H](C(=O)O)C3)c2CC[C@@H]1C [Example 795] | 1 to 1000 |
| COC(=O)N1c2ccc3c(nc(CC(=O)N4CCCC4)n3[C@@H]3CCC[C@@H](C(=O)O)C3)c2CC[C@@H]1C [Example 798] | 1 to 1000 |
| COC(=O)N1c2ccc3c(nc(Nc4cccc(F)c4)n3[C@@H]3CCC[C@@H](C(=O)O)C3)c2CC[C@@H]1C [Example 802] | 1 to 1000 |
| COC(=O)N1c2ccc3c(nc(C(C)Cc4ccccc4)n3C3CCNCC3)c2CC[C@@H]1C (stereo partly shown) [Example 803] | 1 to 1000 |
| COC(=O)N1c2ccc3c(nc(CC[C@H]4CCOC4)n3[C@@H]3CCC[C@@H](C(=O)O)C3)c2CC[C@@H]1C [Example 804] | 1 to 1000 |
| COC(=O)N1c2ccc3c(nc(N(C)c4ccc(F)cc4)n3[C@H]3CC[C@H](C(=O)O)CC3)c2CC[C@@H]1C [Example 805] | 1 to 1000 |
| COC(=O)N1c2ccc3c(nc(CC4CCCOC4)n3C3CCCC(C(=O)O)C3)c2CC[C@@H]1C (stereo partly shown) [Example 806] | 1 to 1000 |
| COC(=O)N1c2ccc3c(nc(OCCc4ccccc4)n3[C@H]3CC[C@H](C(=O)O)CC3)c2CC[C@@H]1C [Example 807] | 1 to 1000 |
| COC(=O)N1c2ccc3c(nc(OCCn4cc(Cl)cn4)n3[C@@H]3CCC[C@@H](C(=O)O)C3)c2CC[C@@H]1C [Example 810] | 1 to 1000 |
| COC(=O)N1c2ccc3c(nc(C(CO)c4ccccc4)n3C3CCC(C(=O)O)CC3)c2CC[C@@H]1C (stereo partly shown) [Example 812] | 1 to 1000 |
| COC(=O)N1c2ccc3c(nc(S(=O)(=O)c4ccccc4)n3[C@@H]3CCC[C@@H](C(=O)O)C3)c2CC[C@@H]1C [Example 813] | 1 to 1000 |
| COC(=O)N1c2ccc3c(nc(S(=O)(=O)Cc4ccccc4)n3[C@@H]3CCC[C@@H](C(=O)O)C3)c2CC[C@@H]1C [Example 814] | 1 to 1000 |
| COC(=O)N1c2ccc3c(nc(Cc4nccc(C)n4)n3[C@@H]3CCC[C@@H](C(=O)O)C3)c2CC[C@@H]1C [Example 820] | 1 to 1000 |
| C/C=C(/Oc1ccccc1)c1nc2c3c(ccc2n1[C@H]1CC[C@H](C(=O)O)CC1)N(C(=O)OC)[C@@H](C)CC3 [Example 821] | 1 to 1000 |
| COC(=O)N1c2ccc3c(nc(C4(Oc5cnccn5)CC4)n3[C@H]3CC[C@H](C(=O)O)CC3)c2CC[C@@H]1C [Example 823] | 1 to 1000 |

— patent US11292791B2 (priority 2017, dated 2022)
